From PubChem BioAssay AID602211 (Sanford-Burnham Center for Chemical Genomics, 2012)
The source made the active and inactive calls.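 How the source made its calls: active means mean IC50 at or below 10 µM; inactive means the rest.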

Tested on: H9c2 cardiomyocytes, H2O2 protection, ATPLite viability, 2 h
Assay: H2O2-induced H9c2 cell death suppression – ATPLite luminescence, set 2, dose response (AID 602211);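 further: potency is for protection so actives keep ATP signal up against peroxide killing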

CCC(Oc1ccccc1)C(=O)Nc1ccccc1C(=O)N1CCCCC1 (centres undefined)
IC50: 36.2 µM (inactive)

CCOc1ccc2nc(NC(=O)CN3CCC(n4nnc5cc(F)ccc54)CC3)sc2c1
IC50: 2.37 µM

CCn1c(O)c(/C=N/N=C/c2ccccc2)c2ccc(C3=NNC(=O)CC3)cc21
IC50: 4.56 µM

CC(=O)Nc1ccc(S(=O)(=O)N(Cc2cccnc2)Cc2cc3ccccc3[nH]c2=O)cc1
IC50: 1.51 µM

COc1ccc(-c2cc(-c3nnc(COC(=O)C4CC4C)o3)c3ccccc3n2)cc1OC (centres undefined)
IC50: 3.86 µM

CC1CN(c2nn3c(=O)c4ccccc4nc3c3ccccc23)CC(C)O1 (centres undefined)
IC50: 32.5 µM (inactive)

O=C(N/N=C/c1ccc2c(c1)OCO2)c1ccc(NC(=O)c2ccccc2Cl)cc1
IC50: 8.05 µM

Cc1cc(C)c(C)c(S(=O)(=O)N2CCN(C(=O)c3cc(=O)[nH]c4ccccc34)CC2)c1C
IC50: 0.998 µM

COc1ccc(-c2cc(C(=O)NC(C)c3ccccn3)c3ccccc3n2)cc1OC (centres undefined)
IC50: 5.39 µM

COc1cc2c(C#CCCCO)c(-c3ccsc3)oc(=O)c2cc1OC
IC50: 2.3 µM

COc1ccccc1OCC(=O)Nc1cccc(-c2nnc(-c3ccco3)o2)c1
IC50: > 79 µM (inactive)

CC1Nc2ncnc(N3CCN(c4ccccc4)CC3)c2N(Cc2ccc(Cl)cc2)C1=O (centres undefined)
IC50: 5.41 µM

COC(=O)c1cccc(S(=O)(=O)N(Cc2ccco2)Cc2cc3cc(OC)ccc3[nH]c2=O)c1
IC50: 42.2 µM (inactive)

COc1cccc(NC(=O)c2oc3ccc(S(=O)(=O)N4CCOCC4)cc3c2C)c1
IC50: 1.98 µM

O=C(COC(=O)c1ccccc1C(=O)OCC(=O)NCCc1c[nH]c2ccccc12)NCCc1c[nH]c2ccccc12
IC50: 4.86 µM

CCN1C(=O)/C(=C/c2nc3ccccc3c(=O)[nH]2)c2ccccc21
IC50: 7.84 µM

COc1ccc(/C=N/NC(=O)c2cc(-c3ccc4c(c3)OCO4)n[nH]2)cc1OC
IC50: 7.49 µM

COc1ccccc1NC(=O)CSc1ccc2nnc(-c3ccc(C)cc3)n2n1
IC50: 3.16 µM

N#C/C(=C\c1cn(-c2ccccc2)nc1-c1cccnc1)c1nnc2n1CCCCC2
IC50: 13.7 µM (inactive)

COc1cc(/C=C/C(=O)Nc2ccc3nc4n(c(=O)c3c2)CCCC4)cc(OC)c1OC
IC50: 13.3 µM (inactive)

COc1cc(/C=C(\C#N)C(=O)Nc2ccccc2F)ccc1OCCN1CCOCC1
IC50: 15.9 µM (inactive)

COc1ccc(CCNc2nc(-c3cccnc3)nc3ccccc23)cc1OC
IC50: 2.28 µM

O=C(NCC(=O)N(Cc1cccs1)C(C(=O)NC1CCCCC1)c1ccco1)c1ccco1 (centres undefined)
IC50: 10.6 µM (inactive)

COc1cccc(Nc2nc3ccccc3n3cnnc23)c1
IC50: 9.05 µM

Cc1ccc(-n2cc(-c3ccccc3)c3c(N4CCOCC4)ncnc32)cc1
IC50: 5.98 µM

CCOC(=O)N1CCN(C(=O)CSc2nc3c(cnn3-c3ccc(C)cc3)c(=O)[nH]2)CC1
IC50: 2.14 µM

COc1ccc(-c2cc(NC=O)c3ncc(-c4ccc(C(C)=O)cc4)n3c2)cn1
IC50: 4.52 µM

CCN(CC(=O)Nc1ccc(OC)cc1)C(=O)c1cc(-c2cccs2)nn1-c1ccccc1
IC50: 2.06 µM

O=C(Nc1ccc(C(=O)N2CCOCC2)cc1)c1cnn2c(C(F)F)cc(-c3ccccc3)nc12
IC50: 2.8 µM

CN(C(=O)c1sc2nc(N3CCOCC3)c3c(c2c1N)CCCC3)c1ccccc1
IC50: 2.64 µM

CCOC(=O)N1CCc2c(sc(NC(=O)CN3CCOCC3)c2C(=O)Nc2ccccc2)C1
IC50: 39.9 µM (inactive)

CC(=O)NCCNc1nc2c(-c3ccccc3)nnn2c2ccccc12
IC50: 2.56 µM

CC(=O)Nc1cccc(-c2cc(NC=O)c3ncc(-c4cccc(C(C)=O)c4)n3c2)c1
IC50: 22.1 µM (inactive)

NS(=O)(=O)c1ccc(CCNc2ccn3nc(-c4ccc(OCCN5CCOCC5)cc4)cc3n2)cc1
IC50: 7.72 µM

CC(=O)Nc1ccc(-c2csc(NC(=O)Nc3ccccc3)n2)cc1
IC50: 40.6 µM (inactive)

COc1cc(NC(=O)c2cc3nc(-c4ccccc4)cc(-c4ccccc4)n3n2)cc(OC)c1OC
IC50: 3.87 µM

CC(=O)c1ccc(-c2[nH]c3ccccc3c2CCN2C(=O)c3ccccc3C2=O)cc1
IC50: 9.73 µM

COc1ccc(C(C(=O)NCc2ccccc2)N(Cc2cccs2)C(=O)c2cnccn2)cc1 (centres undefined)
IC50: 25 µM (inactive)

COc1cc(/C=N/n2nnnc2Nc2ccccc2)cc(OC)c1OC
IC50: 9.53 µM

COc1ccc(OC)c(/C=N/Nc2nncn2/N=C/c2cc(OC)ccc2OC)c1
IC50: 6.17 µM

N#Cc1ccccc1S(=O)(=O)N1CCN(c2nc(-c3cccnc3)nc3ccccc23)CC1
IC50: > 79 µM (inactive)

COc1ccc(-c2cc(NC=O)c3ncc(-c4cccc(C(C)=O)c4)n3c2)cc1
IC50: > 79 µM (inactive)

O=C(NCc1ccco1)C(c1ccccc1)N(C(=O)Cc1cccs1)c1ccccc1F (centres undefined)
IC50: 3.52 µM

CC(=O)Nc1cc(-c2ccc(C(=O)N3CCOCC3)cc2)cn2c(-c3ccc(C(C)=O)cc3)cnc12
IC50: > 79 µM (inactive)

CN(CC1COc2ccccc2O1)c1nc(-c2cccnc2)nc2ccccc12 (centres undefined)
IC50: 25.9 µM (inactive)

Cc1nc(N2CCN(c3ccccn3)CC2)c2c(C)c(C(=O)Nc3ccc(F)cc3)sc2n1
IC50: 4.36 µM

COc1cccc(C(=O)Nc2cc(C)c3c(=O)oc4ccccc4c3n2)c1
IC50: 7.02 µM

O=C(NCC(=O)N(Cc1cccs1)C(C(=O)NC1CCCCC1)c1ccco1)c1cccs1 (centres undefined)
IC50: 3.23 µM

CC(=O)Nc1ccc(C(=O)N/N=C/c2ccccc2OC(=O)c2ccc(Cl)cc2)cc1
IC50: 13.6 µM (inactive)

COc1ccc(CNn2c(-c3cccs3)nc3ccccc3c2=O)cc1OC
IC50: 7.18 µM

CC(C)(C)NC(=O)c1cccc(NC(=O)c2ccc(NC(=O)c3ccco3)cc2)c1
IC50: > 79 µM (inactive)

CCCCNC(=O)c1cn(-c2ccc(OCC)cc2)c(=O)c2cc(OC)c(OC)cc12
IC50: > 79 µM (inactive)

C[C@H]1Cn2cnc(C(=O)N[C@@H](Cc3c[nH]c4ccccc34)C(=O)OC(C)(C)C)c2C(=O)N1
IC50: 24.1 µM (inactive)

CCC(C)N1C(=O)S/C(=C/c2ccc3c(c2)n(C)c(=O)n3C)C1=O (centres undefined)
IC50: > 79 µM (inactive)

O=C(NC1CCCCC1)C(c1ccc2ncccc2c1)N(Cc1ccco1)C(=O)c1ccc2c(c1)OCCO2 (centres undefined)
IC50: 10.8 µM (inactive)

O=C(NCCc1ccccc1Cl)c1ccc2nc3ccccc3c(=O)n2c1
IC50: 7.16 µM

CCC(c1nnnn1Cc1ccccc1)N1CCC(n2c(=O)[nH]c3ccccc32)CC1 (centres undefined)
IC50: > 79 µM (inactive)

O=C(CN1C(=O)C2C3C=CC(C3)C2C1=O)Nc1nc(-c2ccccn2)cs1 (centres undefined)
IC50: 21.1 µM (inactive)

CC(=O)Nc1cccc(-c2cc(NC(C)=O)c3ncc(-c4cccc(C(C)=O)c4)n3c2)c1
IC50: 38.4 µM (inactive)

COc1cc2[nH]c(=O)n3nc(-c4ccccc4)nc3c2cc1OC
IC50: 11 µM (inactive)

COc1cc(NC(=O)c2cc([N+](=O)[O-])ccc2NC(=O)CN2CCN(c3ccccn3)CC2)cc(OC)c1
IC50: 2.58 µM

CCCn1nc(C(=O)Nc2nc(-c3ccccn3)cs2)c2ccccc2c1=O
IC50: 3.37 µM

COC(=O)c1cc(NC(=O)c2cc3ccccc3o2)cc(C(=O)OC)c1
IC50: 5.42 µM

Cc1ccc(-c2nnc3ccc(SCC(=O)N4CCCc5ccccc54)nn23)cc1
IC50: > 79 µM (inactive)

COc1cc(C(=O)N/N=C/c2ccc(OC(=O)c3ccccc3Cl)cc2)ccc1O
IC50: > 79 µM (inactive)

Cc1c(O)ccc2c(-c3ccccc3)cc(=O)oc12
IC50: > 79 µM (inactive)

O=C1N[C@H](Cc2ccccc2)COC(=O)[C@@H](Cc2ccc(F)cc2)C/C=C\C[C@H]1CC(=O)N(CCO)Cc1ccccc1
IC50: > 79 µM (inactive)

CC1Nc2ncnc(N3CCN(c4ccccc4)CC3)c2N(Cc2ccc(Br)cc2)C1=O (centres undefined)
IC50: 6.65 µM

O=C(Nc1cccc2cccnc12)c1ccc2sc([C@H]3C[C@H](O)[C@@H](CO)O3)nc2c1
IC50: 4.33 µM

COc1cc(-c2cc(NC(C)=O)c3ncc(-c4cc(OC)c(OC)c(OC)c4)n3c2)cc(OC)c1OC
IC50: 3.85 µM

CSc1nc2ncc3c(n2n1)CC1c2ccccc2CCN1C3=O (centres undefined)
IC50: 23 µM (inactive)

COC(=O)c1cc2ccccn2c2c(C(=O)OC)c(C(=O)OC)cc1-2
IC50: 2.25 µM

COC(=O)C1=C(C)N(CCc2ccc(OC)cc2)C(=O)C1
IC50: 21.9 µM (inactive)

COc1ccc(OCC(O)Cn2c(Br)nc3c2c(=O)[nH]c(=O)n3C)cc1 (centres undefined)
IC50: 15.9 µM (inactive)

COc1ccc(NC(=O)c2cc3c(=O)n(C)c4ccccc4c3n2C)cc1OC
IC50: 3.23 µM

C=CCOC(=O)C1=C[C@H](c2cn(C(C)=O)c3ccccc23)C[C@H](OCc2ccc(CO)cc2)O1
IC50: 9.81 µM

COc1cccc(-c2cnc3c(NC=O)cc(-c4cccc(NC(C)=O)c4)cn23)c1
IC50: 5.98 µM

COc1ccc(OC)c(Nc2nc(N)c([N+](=O)[O-])c(N3CCOCC3)n2)c1
IC50: 11.8 µM (inactive)

CCOCCCNC(=O)CCC(=O)NNc1nc2ccccc2c2nc(-c3ccccc3)nn12
IC50: 42.6 µM (inactive)

COc1cccc(-c2cnc3c(NC=O)cc(-c4cc(OC)c(OC)c(OC)c4)cn23)c1
IC50: 3.61 µM

COc1cc(OC)c(-c2nn3c(-c4ccco4)nnc3s2)cc1OC
IC50: 4.56 µM

CCOc1ccc(CCNC(=O)c2cc3c(C)nccc3[nH]c2=O)cc1OCC
IC50: 42.9 µM (inactive)

CCOC(=O)c1c(C)[nH]c(C)c1C(=O)COc1ncnc2cc([N+](=O)[O-])ccc12
IC50: 11.1 µM (inactive)

COc1ccc(C(=O)Nc2cccc(NC(=O)c3ccc(OC)c(OC)c3)n2)cc1OC
IC50: 1.49 µM

CC(C)(C)OC(=O)C[C@H]1C/C=C\C[C@H](CC(=O)N[C@H](CO)Cc2ccccc2)C(=O)N[C@H](Cc2ccccc2)COC1=O
IC50: 6.31 µM

Cc1ccc(NC(=O)c2cc(=O)c3ccccc3o2)cc1S(=O)(=O)N1CCOCC1
IC50: 5.15 µM

O=C(c1ccc(-c2nc3ccccc3s2)o1)N1CCN(c2ccccc2O)CC1
IC50: 5.48 µM

COc1ccc(CCNC(=O)C(=O)NCC2CCCN2S(=O)(=O)c2ccccc2)cc1OC (centres undefined)
IC50: 6.18 µM

COc1ccc(-c2csc(NC(=O)c3cccc(N4C(=O)CCC4=O)c3)n2)cc1OC
IC50: 5 µM

COc1ccc(-c2cc(C(=O)N(C)Cc3nc4ccccc4c(=O)[nH]3)c3ccccc3n2)cc1OC
IC50: 1.71 µM

COC(=O)/C(=C(O)\C=C\c1ccccc1[N+](=O)[O-])c1nc2ccccc2[nH]1
IC50: 7.96 µM

O=C(COC(=O)c1cc(-c2cccnc2)nc2ccccc12)Nc1ccc(F)cc1F
IC50: 17.8 µM (inactive)

O=C(Nc1nc(-c2ccccn2)cs1)c1ccc(-c2ccccc2F)o1
IC50: 3 µM

O=C1c2ccccc2C(=O)N1CCCCSc1nc2ccccc2c(=O)n1CCCN1CCOCC1
IC50: 8.49 µM
